Assay [1] has as its target T1, TMEM16B (Mus musculus, UniProt Q8CFW1).
T1 construct: gene Ano2; mouse TMEM16B isoform A, expressed in HEK-293T cells
T1 sequence (Q8CFW1 1-1002): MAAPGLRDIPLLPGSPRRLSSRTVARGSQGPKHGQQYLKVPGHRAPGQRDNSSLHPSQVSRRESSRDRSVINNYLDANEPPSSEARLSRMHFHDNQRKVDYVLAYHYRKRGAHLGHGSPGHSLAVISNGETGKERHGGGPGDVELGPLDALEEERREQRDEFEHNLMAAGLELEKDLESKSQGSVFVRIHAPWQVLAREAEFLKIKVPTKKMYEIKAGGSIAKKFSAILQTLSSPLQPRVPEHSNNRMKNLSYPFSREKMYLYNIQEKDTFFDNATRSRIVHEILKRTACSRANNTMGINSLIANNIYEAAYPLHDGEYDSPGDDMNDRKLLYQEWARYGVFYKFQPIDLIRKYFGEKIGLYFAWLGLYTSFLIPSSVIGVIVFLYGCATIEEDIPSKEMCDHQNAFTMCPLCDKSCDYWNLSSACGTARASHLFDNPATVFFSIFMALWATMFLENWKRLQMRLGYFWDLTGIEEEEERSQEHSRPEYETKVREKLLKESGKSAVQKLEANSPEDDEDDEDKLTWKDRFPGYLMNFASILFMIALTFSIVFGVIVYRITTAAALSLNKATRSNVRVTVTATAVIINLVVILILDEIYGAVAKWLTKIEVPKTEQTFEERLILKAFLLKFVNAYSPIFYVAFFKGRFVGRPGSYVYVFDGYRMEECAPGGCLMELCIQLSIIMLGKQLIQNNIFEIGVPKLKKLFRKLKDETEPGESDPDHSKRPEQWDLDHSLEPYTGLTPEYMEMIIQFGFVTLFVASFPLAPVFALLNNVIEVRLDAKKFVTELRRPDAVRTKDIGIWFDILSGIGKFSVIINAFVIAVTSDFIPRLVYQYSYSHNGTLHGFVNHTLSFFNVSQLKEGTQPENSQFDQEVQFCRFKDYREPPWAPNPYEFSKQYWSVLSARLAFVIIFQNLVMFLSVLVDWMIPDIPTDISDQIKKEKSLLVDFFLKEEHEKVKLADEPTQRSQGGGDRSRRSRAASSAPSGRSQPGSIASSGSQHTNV
The assay is described as follows: inside-out patch clamp, excised patches from HEK-293T cells, +[…] mV, […] Ca2+ (partial current inhibition). It counts as biochemical. As to conditions: read-out: K i.

Assay [2] has as its target T2, TMEM16A (Mus musculus, UniProt Q8BHY3).
T2 construct: gene Ano1; mouse TMEM16A isoform (ac), expressed in HEK-293T cells
T2 sequence (Q8BHY3 1-960): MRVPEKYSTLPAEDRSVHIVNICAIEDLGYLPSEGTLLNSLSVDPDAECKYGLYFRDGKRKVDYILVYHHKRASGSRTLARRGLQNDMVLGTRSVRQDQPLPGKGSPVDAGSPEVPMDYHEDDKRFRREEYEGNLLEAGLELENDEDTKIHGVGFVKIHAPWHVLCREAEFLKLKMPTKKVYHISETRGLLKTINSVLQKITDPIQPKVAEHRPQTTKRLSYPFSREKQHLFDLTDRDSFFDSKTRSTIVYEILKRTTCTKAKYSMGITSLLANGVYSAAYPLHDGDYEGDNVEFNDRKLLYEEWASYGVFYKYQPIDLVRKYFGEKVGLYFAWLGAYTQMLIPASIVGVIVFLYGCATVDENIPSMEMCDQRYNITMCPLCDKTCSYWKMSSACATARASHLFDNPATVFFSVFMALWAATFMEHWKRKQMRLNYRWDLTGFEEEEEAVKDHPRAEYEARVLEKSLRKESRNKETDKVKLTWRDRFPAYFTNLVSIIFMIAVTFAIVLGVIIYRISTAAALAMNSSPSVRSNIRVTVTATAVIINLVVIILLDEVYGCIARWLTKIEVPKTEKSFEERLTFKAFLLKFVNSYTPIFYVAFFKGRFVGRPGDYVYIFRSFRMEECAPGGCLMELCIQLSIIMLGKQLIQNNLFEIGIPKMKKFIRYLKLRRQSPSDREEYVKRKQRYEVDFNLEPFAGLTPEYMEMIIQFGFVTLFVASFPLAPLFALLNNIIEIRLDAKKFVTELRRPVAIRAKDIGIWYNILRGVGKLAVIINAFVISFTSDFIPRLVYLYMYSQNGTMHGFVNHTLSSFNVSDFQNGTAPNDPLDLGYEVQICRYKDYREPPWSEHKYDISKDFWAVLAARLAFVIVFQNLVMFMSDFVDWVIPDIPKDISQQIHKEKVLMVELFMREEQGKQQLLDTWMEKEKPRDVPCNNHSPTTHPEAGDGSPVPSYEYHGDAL
Nature of the assay: inside-out patch clamp, excised patches from HEK-293T cells, +[…] mV, […] Ca2+ (current activation). It is filed as biochemical. As to conditions: read-out: K a.

For `CCCCCCCC(=O)OC[C@H](COP(=O)(O)O[C@@H]1[C@H](O)[C@H](O)[C@@H](OP(=O)(O)O)[C@H](OP(=O)(O)O)[C@H]1O)OC(=O)CCCCCCC` [diC8‐PIP2], in assay [1], the IC50 worked out at 46 ± 2 µM. Also, the EC50 in assay [2] stood at 53 ± 9 µM.

The values are drawn from PMC5573538, “Contrasting effects of phosphatidylinositol 4,5‐bisphosphate on cloned TMEM16A and TMEM16B channels” (British Journal of Pharmacology, 2017).
